{
  "source": "patent US20180289692A1",
  "about": "“TLR MODULATORS AND METHODS OF USE” (CELGENE CORPORATION, priority 2015, published 2018)",
  "key": {"[1]": {"tested_on": "ulcerative colitis patients", "settings": "clinical studies, subset of UC patients; cited from earlier work"}, "human PBMCs": {"tested_on": "human PBMCs", "experiment": "IL-1β secretion from human PBMCs by ELISA (inflammasome activation)", "format": "cell-based", "settings": "24 hours, FIG. 15"}, "TLR7": {"molecular_target": "T1, TLR7 (Homo sapiens, UniProt Q9NYK1)", "T1 construct": "endogenous in cells; host or cells: human PBMCs from healthy donors", "T1 sequence (Q9NYK1 27-1049)": "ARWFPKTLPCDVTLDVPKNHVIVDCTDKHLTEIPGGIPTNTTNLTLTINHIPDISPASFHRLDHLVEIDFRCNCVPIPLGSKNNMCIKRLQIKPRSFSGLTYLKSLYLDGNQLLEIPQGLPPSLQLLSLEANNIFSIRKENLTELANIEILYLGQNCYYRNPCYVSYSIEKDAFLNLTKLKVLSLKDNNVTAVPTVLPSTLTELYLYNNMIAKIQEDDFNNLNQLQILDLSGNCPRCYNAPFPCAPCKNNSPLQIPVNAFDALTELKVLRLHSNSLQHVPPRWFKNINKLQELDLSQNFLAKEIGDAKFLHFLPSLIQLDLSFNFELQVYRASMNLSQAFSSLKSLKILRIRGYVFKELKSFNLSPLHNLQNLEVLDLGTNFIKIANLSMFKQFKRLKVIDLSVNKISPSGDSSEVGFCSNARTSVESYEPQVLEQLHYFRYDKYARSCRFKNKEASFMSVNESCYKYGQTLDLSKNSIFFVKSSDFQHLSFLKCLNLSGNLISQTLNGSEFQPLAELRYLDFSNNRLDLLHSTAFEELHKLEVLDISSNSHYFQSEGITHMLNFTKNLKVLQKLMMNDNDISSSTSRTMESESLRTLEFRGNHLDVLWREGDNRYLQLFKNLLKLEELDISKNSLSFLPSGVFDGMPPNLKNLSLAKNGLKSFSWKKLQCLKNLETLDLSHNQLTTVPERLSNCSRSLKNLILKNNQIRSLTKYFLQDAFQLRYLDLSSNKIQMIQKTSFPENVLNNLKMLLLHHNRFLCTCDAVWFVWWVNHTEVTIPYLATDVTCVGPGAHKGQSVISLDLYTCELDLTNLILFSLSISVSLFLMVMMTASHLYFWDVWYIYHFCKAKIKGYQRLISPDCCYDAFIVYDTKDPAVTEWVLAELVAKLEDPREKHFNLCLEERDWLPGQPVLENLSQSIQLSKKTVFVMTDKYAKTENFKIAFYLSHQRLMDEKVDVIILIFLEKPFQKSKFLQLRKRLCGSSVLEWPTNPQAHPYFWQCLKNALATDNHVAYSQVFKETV", "experiment": "Inhibition of TLR7 (imiquimod)-induced IFNα and IP10 (CXCL10) in PBMCs", "format": "cell-based", "protocol": "After 24 hours, the supernatant was harvested and tested for IFNα using MagPix Multi-Plex technology."}, "human pDCs": {"tested_on": "human pDCs", "experiment": "Intracellular IL-10, TGF-β1 and IDO expression in CCR6+CD123+ human pDCs by FACS", "format": "cell-based", "settings": "24 hrs, FIG. 2A", "from_the_text": "To evaluate intracellular IL-10, TGFβ 1 and IDO expression in human pDCs, the cells were first stained with PECY-7-labeled anti-human CCR6 mAb (BD Biosciences), PerCP-Cy5.5 labeled anti-human CD123 mAb (BD Biosciences). Stained cells were then fixed and permeabilized using a Cytofix/Cytoperm kit (BD Biosciences) according to the manufacturer's instructions and stained with PE-labeled anti-human IDO (Biolegend), APC-labeled anti-human IL-10 mAb and FITC-labeled anti-human TGF-β1 (BD Biosciences), or isotype-matched control mAbs. The stained cells were acquired by FACSCanto using the FACSDiva software. FACS analysis was performed using FlowJo software. Single, viable cells in the CCR6+CD123+ pDC gates were analyzed. The flow cytometric results are expressed as the percentage and MFI of IL-10-, TGF-β1- or IDO-expressing cells in each gate. Results are expressed as the mean±SEM of cells quantified.\nIL10 was alternatively measured in cellular supernatants by ELISA using standard protocols."}, "TLR8": {"molecular_target": "T2, TLR8 (Homo sapiens, UniProt Q9NR97)", "T2 construct": "host or cells: HEK Blue TLR8 reporter cells (engineered HEK293, NF-κB inducible SEAP)", "T2 sequence (Q9NR97 27-1041)": "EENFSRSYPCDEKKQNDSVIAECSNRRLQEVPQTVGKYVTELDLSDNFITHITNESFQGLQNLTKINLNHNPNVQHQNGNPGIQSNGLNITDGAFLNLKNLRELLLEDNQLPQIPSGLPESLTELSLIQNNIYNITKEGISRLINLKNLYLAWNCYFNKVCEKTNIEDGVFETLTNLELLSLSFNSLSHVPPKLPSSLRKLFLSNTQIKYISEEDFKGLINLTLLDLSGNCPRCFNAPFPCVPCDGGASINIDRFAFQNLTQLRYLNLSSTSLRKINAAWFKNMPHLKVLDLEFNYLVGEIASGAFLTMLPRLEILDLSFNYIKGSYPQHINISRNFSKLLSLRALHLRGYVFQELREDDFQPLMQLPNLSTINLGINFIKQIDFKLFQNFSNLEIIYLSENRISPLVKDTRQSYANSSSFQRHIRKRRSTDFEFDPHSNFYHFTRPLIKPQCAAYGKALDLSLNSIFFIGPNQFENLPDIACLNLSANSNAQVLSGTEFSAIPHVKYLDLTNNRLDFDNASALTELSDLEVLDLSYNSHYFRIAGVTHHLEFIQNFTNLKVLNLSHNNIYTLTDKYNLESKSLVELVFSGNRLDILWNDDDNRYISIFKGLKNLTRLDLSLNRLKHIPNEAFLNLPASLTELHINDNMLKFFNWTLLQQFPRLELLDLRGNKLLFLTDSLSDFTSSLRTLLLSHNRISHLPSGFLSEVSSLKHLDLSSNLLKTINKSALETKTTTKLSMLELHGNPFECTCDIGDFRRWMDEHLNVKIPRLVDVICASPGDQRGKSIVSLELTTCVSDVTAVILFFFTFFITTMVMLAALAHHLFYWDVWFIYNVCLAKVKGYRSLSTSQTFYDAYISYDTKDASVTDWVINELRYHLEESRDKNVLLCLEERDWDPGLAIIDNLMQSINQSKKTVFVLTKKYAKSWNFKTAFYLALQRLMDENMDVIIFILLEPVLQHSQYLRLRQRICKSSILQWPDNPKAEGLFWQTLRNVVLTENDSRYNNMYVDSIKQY", "experiment": "TLR8 activation in HEK Blue TLR8 reporter cell line after lipo-transfection", "format": "cell-based", "settings": "HEK Blue TLR8 reporter cells, Lipofectamine transfection, FIG. 24", "protocol": "Briefly, the reporter cells were engineered HEK293 cells that express a TLR8 gene and are specially designed for monitoring activity of NF-kβ inducible SEAP (secreted embryonic alkaline phosphatase). Reporter cells were seeded at a density of around 60000/well in 96 wells plates for 72 hrs. Growth medium was removed and Lipofectamine™ (Life Technologies, Foster City, Calif.) 2000/oligonucleotide complex and agonist was added and incubated for 6 hrs. The complex was removed and Detection Medium was added for 16 hrs of incubation. Optical density of SEAP was measured by spectrophotometer at […]. […] See also, Table 7."}},
  "note": "Read-outs that look alike come from different tables or passages of the source. Oligonucleotides are written 5' to 3', each unit as a sugar letter and its base; * is a phosphorothioate linkage, no mark a phosphodiester; rarer units and linkages stand in square brackets, end groups in braces. Plain capitals give the bases only. d = 2'-deoxy (DNA)",
  "data": [
    {"substance": "ODN150: 5′-G*G*A*ACAGTTCGTCCAT*G*G*C-3′, PO except * = PS; antisense to p65 of NF-kB mRNA; tested clinically for ulcerative colitis (DNA dG*dG*dA*dAdCdAdGdTdTdCdGdTdCdCdAdT*dG*dG*dC)", "values": [
      {"measurement": "clinical effect in ulcerative colitis", "setting": "[1]", "value": "some moderate beneficial effects"},
      {"measurement": "IL-1β induction", "setting": "human PBMCs", "value": "did not induce"},
      {"measurement": "IC50", "setting": "TLR7; Imiquimod 5 μg/ml 24 hours, FIGS. 8B, 9A, read-out: IC50, TLR7-mediated IFNα induction", "value": "> 10", "unit": "µM"},
      {"measurement": "IC50", "setting": "TLR7; imiquimod, FIG. 9B, read-out: IC50, TLR7-mediated IP10 (CXCL10) induction", "value": "> 10", "unit": "µM"},
      {"measurement": "TGF-β1 protein induction", "setting": "human pDCs", "value": "can induce"},
      {"measurement": "TLR8 activation", "setting": "TLR8", "value": "substantially induced"}
    ]}
  ]
}
